Earlier results on two compounds are cited in patent US20160128954A1 (Raptor Pharmaceuticals Inc., priority 2014, published 2016).

The conditions of series [1]: in vivo.
For series [2], the system named is mice with the gene mutation for Huntington's disease (HD). The following applies: mouse, in vivo.
The subject of series [3] is circulating white blood cells.
For series [4], the system named is HD patients. As to conditions: five patients over 2 weeks.

On to `NCCSSCCN` [cystamine, Cystamine], for which, in series [1], the “crossing of the blood-brain barrier” value was “does not, or corsses less efficiently than cysteamine”. In addition, the “effect on tremors and life span” value in series [2] was “alleviate tremors and prolong life”.
Take `NCCS` [cysteamine, Cysteamine (HS—CH2—CH2—NH2)]: in series [3] (delivery into the small intestine (WO 2007/089670)), the “time to decrease in leukocyte cystine” value is “within an hour”. Besides, the “depletion of intracellular cystine” value in series [3] (taken regularly, measured in circulating white blood cells) is recorded as “up to 90%”. Moreover, the “efficacy in HD” value in series [4] is recorded as “no efficacy”. Also, in series [1], the “crossing of the blood-brain barrier” value was “crosses the blood-brain barrier”.
